From patent publication US10494611B2, “Compositions comprising a mitofusin inhibitor for promoting cell reprogramming and a use thereof” (KOREA RESEARCH INSTITUTE OF BIOSCIENCE AND BIOTECHNOLOGY, priority 2014, dated 2019) come the findings set out here.

The subject of experiment [1] is mouse Mfn1 promoter. As to the kind of experiment: Mouse Mfn1 promoter reporter assay (luciferase), REDOX library screening. Type of experiment: cell-based. The conditions noted are these: Mfn1−/− MEFs carrying Mfn1 promoter reporter, 10 μM, 48 hours. The protocol:
(§1) In one specific embodiment of the present invention, mouse and human Mfn1 promoter reporter (Genecopoeia) cells were prepared using Mfn1−/−MEFs and 293T cells, respectively, and a Screen-Well™ REDOX library containing the 84 compounds was treated at a concentration of 10 μM by for 48 hours.
(§2) Mfn1-KO MEFs were stably transfected with an Mfn1 promoter reporter construct (Genecopoeia) cells of mouse and human were produced using Mfn1−/− MEFs and 293T cells (human embryonic renal cells) and then treated with the Screen-Well™ REDOX library, containing 84 compounds, for 48 hours in a concentration of 10 nM to 10 μM. Mfn1 promoter activity was measured in the culture supernatants with the Secrete-Pair™ Dual Luminescence and Gaussia Luciferase Assay Kits (Genecopoeia) using a SpectraMax microplate reader.
(In general: Reporter assays use an easily measured gene product as a stand-in for the process of interest.)

For experiment [2], the system named is MEFs. In words: Reprogramming of MEFs by OSKM transduction, AP staining. Type of experiment: cell-based, mouse.
In experiment [3] the test system is human Mfn1 promoter. As to the kind of experiment: Human Mfn1 promoter reporter assay (luciferase) in 293T cells, REDOX library screening. Type of experiment: cell-based. The conditions noted are these: 293T cells with human Mfn1 promoter reporter, 10 μM, 48 hours. On the procedure: as §1, §2
In experiment [4] the test system is MEFs. In words: Mitochondrial morphology of reprogramming cultures (Mito-EYFP). To be noted: OSKM, 50 μM Mdivi1, Mito-EYFP, D7. Type of experiment: cell-based, mouse. On the procedure: Cells were fixed in 4% paraformaldehyde for 10 minutes at room temperature (RT) and then in MeOH for 15 minutes at −20° C., after which their permeability was increased with 0.3% Triton X-100 in PBS for 30 min and blocked with 4% BSA for 2 hours at RT. The samples were stained with the anti-Tom20 antibody diluted in a blocking buffer at 4° C. overnight. After washing, the cells were stained with Alexa 488-conjugated secondary antibodies (Invitrogen) for 45 minutes at RT. The nuclei were counterstained with 10 μg/ml DAPI. For live cell imaging, the cells were incubated with 200 nM MitoTracker® Red CMXRos (Invitrogen) for 30 minutes at 37° C. Florescent images were analyzed under an IX51 microscope (Olympus) or an Axiovert 200M microscope (Carl Zeiss).

Entries after “also recorded” stand apart in the source; their conditions may differ.

Take `Cc1coc2c1C(=O)C(=O)c1c-2ccc2c1CCCC2(C)C` [Tanshinone IIA]: the “mouse Mfn1 promoter activity (relative luciferase activity)” value in experiment [1] is “top 2 upregulated”.

Take `Cc1nc(C)c(C)nc1C` [tetramethylpyrazine]: the “mouse Mfn1 promoter activity (relative luciferase activity)” value in experiment [1] is “top 3 downregulated”; in experiment [1] (listed as tetramethyl pyrazine) it was “down-regulated”.

As for `CN(C/C=C/C#CC(C)(C)C)Cc1cccc2ccccc12.Cl` [erbinafine.HCl], the “mouse Mfn1 promoter activity (relative luciferase activity)” value in experiment [1] is reported as “top 2 upregulated”.

For the compound `O=CC[C@@H](O)[C@H](O)[C@H](O)CO` [2-DG, 2-deoxy-D-glucose], the “cellular reprogramming (AP+ colonies) with glycolysis inhibitor” value in experiment [2] (OSKM reprogramming of MEFs, D11) is on record as “substantially decreased”.

Regarding `CC1=C(C)C(=O)C(CC[C@](C)(O)CCC[C@H](C)CCC[C@H](C)CCCC(C)C)=C(C)C1=O` [D-α-tocopheryl quinone], in experiment [3], the “human Mfn1 promoter activity (relative luciferase activity)” value is “down-regulated; also recorded: best inhibit”.

`C[C@]12C=CC(=O)C=C1CC[C@@H]1C2=CC[C@]2(C)[C@@H](C(=O)CN3CCN(c4cc(N5CCCC5)nc(N5CCCC5)n4)CC3)CC[C@@H]12.O=C(O)/C=C\C(=O)O` [U74389G maleate, 21-[4-(2,6-di-1-pyrrolidinyl-4-pyrimidinyl)-1-piperazinyl]pregna-1,4,9[11]-triene-3,20-dione maleate]: in experiment [3] (maleate), the “human Mfn1 promoter activity (relative luciferase activity)” value was “down-regulated; also recorded: best inhibit”. Also, the “mouse Mfn1 promoter activity (relative luciferase activity)” value in experiment [1] (listed as 21-[4-(2,6-di-1-pyrrolidinyl-4-pyrimidinyl)-1-piperazinyl]pregna-1,4,9[11]-trien, maleate) is “top 3 downregulated”; in experiment [1] (maleate) it was “down-regulated; also recorded: inhibited”.

As to `CCCCCCCCCCCCCCCC(=O)OC/C=C(C)/C=C/C=C(C)/C=C/C1=C(C)CCCC1(C)C` [retinyl palmitate], the “human Mfn1 promoter activity (relative luciferase activity)” value in experiment [3] was “down-regulated; also recorded: best inhibit”.

Turning to `COc1cc(-n2c(=S)[nH]c3ccccc3c2=O)c(Cl)cc1Cl` [Mdivi1], the “higher reprogramming efficiency of Mfn1−/− and Mfn2−/− MEFs” value in experiment [2] (OSKM, 50 μM Mdivi1, AP+ colonies D11) was “blocked”. Besides, the “fragmented mitochondrial morphology of Mfn1−/− and Mfn2−/− MEFs” value in experiment [4] was “blocked”.
